Data as given in publication PMC10419174, “WR1065 conjugated to thiol-PEG polymers as novel anticancer prodrugs: broad spectrum efficacy, synergism, and drug resistance reversal” (Frontiers in Oncology, 2023).
Where “and” joins values, the source holds several entries; their conditions need not be identical. Equal values may be shown once. Read-outs that look alike come from different tables or passages of the source.

Tests used:
Test in all cases: cells
A549 NSCLC cells = system: A549 NSCLC cells
Method: (§1) The percentage of growth inhibition was calculated as follows: […]

Prostate DU145 cells = system: Prostate DU145 cells
Method: as §1

Prostate LNCaP cells = system: Prostate LNCaP cells
Method: as §1

Ovary TOV21G cells = system: Ovary TOV21G cells
Method: as §1

NCI-H1975 NSCLC cells = system: NCI-H1975 NSCLC cells
Method: as §1

Prostate PC3 cells = system: Prostate PC3 cells
Method: as §1

Ovary SKOV3 cells = system: Ovary SKOV3 cells
Method: as §1

human cancer cell lines = system: human cancer cell lines
Method: as §1

[1] = pretreated with 1 mM DFMO for 24 h, then 48 h
[2] = without DFMO pretreatment, 48 h
[3] = 48-h treatment, amifostine ND = not definable up to 500 µM
[4] = read-out: LC50, 48-h treatment, amifostine ND = not definable up to 500 µM
[5] = 1LP65: average across 11 cell lines, 48 h
[6] = 15 cell lines for 4SP65, 11 for 1LP65
[7] = average of HCC38, MDA-MB-231, H1975, DU145, PC3
[8] = averages of dose-response metrics across the panel
[9] = averages over 11 cell lines, minimal fold differences

COCCOCCOCCOCCOCCOCCSSCCNCCCN.O=C(O)C(F)(F)F.O=C(O)C(F)(F)F [1LP65, m-PEG6-S-S-WR1065]
CC50 (A549 NSCLC cells): 155 ± 8 µM
GI50 (A549 NSCLC cells): 52.3 µM and 52 µM
IC50 (A549 NSCLC cells): 66.6 ± 7.9 µM
LC99 (A549 NSCLC cells): 187 ± 11 µM
TGI (A549 NSCLC cells): 126 ± 3 µM and 126 µM
Dose reduction value AMF ÷ 1LP65 (A549 NSCLC cells; at GI50): 5.5 fold
Dose reduction value AMF ÷ 1LP65 (A549 NSCLC cells; at IC50): 4.4 fold
GI50 (A549 NSCLC cells; [1]): 17.1 µM
IC50 (A549 NSCLC cells; [1]): 33.1 µM
GI50 (A549 NSCLC cells; [2]): 38.6 µM
IC50 (A549 NSCLC cells; [2]): 51 µM
GI50 (Prostate DU145 cells; [3]): 26.3 ± 3.8 µM
IC50 (Prostate DU145 cells; [3]): 39.8 ± 3.1 µM
LC99 (Prostate DU145 cells; [3]): 83.5 ± 5.5 µM
TGI (Prostate DU145 cells; [3]): 52.8 ± 5.3 µM and 52.8 µM
Dose reduction value AMF ÷ 1LP65 (Prostate DU145 cells; at GI50): 4.8 fold
Dose reduction value AMF ÷ 1LP65 (Prostate DU145 cells; at IC50): 8.0 fold
CC50 (Prostate DU145 cells; [4]): 71.4 ± 4.3 µM
GI50 (Prostate LNCaP cells; [3]): 28.3 ± 1.9 µM
IC50 (Prostate LNCaP cells; [3]): 44.3 ± 2.8 µM
LC99 (Prostate LNCaP cells; [3]): 114 ± 8.4 µM
TGI (Prostate LNCaP cells; [3]): 51.7 ± 3.8 µM
Dose reduction value AMF ÷ 1LP65 (Prostate LNCaP cells; at GI50): 5.3 fold
Dose reduction value AMF ÷ 1LP65 (Prostate LNCaP cells; at IC50): 8.5 fold
CC50 (Prostate LNCaP cells; [4]): 88.8 ± 7.1 µM
GI50 (Ovary TOV21G cells; [3]): 21.3 ± 3.8 µM
IC50 (Ovary TOV21G cells; [3]): 26.3 ± 3.6 µM
LC99 (Ovary TOV21G cells; [3]): 92.0 ± 2.8 µM
TGI (Ovary TOV21G cells; [3]): 32.7 ± 6.2 µM
Dose reduction value AMF ÷ 1LP65 (Ovary TOV21G cells; at GI50): 2.2 fold
Dose reduction value AMF ÷ 1LP65 (Ovary TOV21G cells; at IC50): 1.6 fold
CC50 (Ovary TOV21G cells; [4]): 51.3 ± 12.2 µM
GI50 (NCI-H1975 NSCLC cells; [3]): 38.9 ± 2 µM
IC50 (NCI-H1975 NSCLC cells; [3]): 52.3 ± 4.4 µM
LC99 (NCI-H1975 NSCLC cells; [3]): 86.8 ± 2.7 µM
TGI (NCI-H1975 NSCLC cells; [3]): 51.8 ± 4.9 µM
Dose reduction value AMF ÷ 1LP65 (NCI-H1975 NSCLC cells; at GI50): 3.3 fold
CC50 (NCI-H1975 NSCLC cells; [4]): 63.3 ± 5.2 µM
GI50 (Prostate PC3 cells; [3]): 22.9 ± 1.8 µM
IC50 (Prostate PC3 cells; [3]): 37.5 ± 4.6 µM
LC99 (Prostate PC3 cells; [3]): 86.3 ± 8.9 µM
TGI (Prostate PC3 cells; [3]): 40.5 ± 2.8 µM and 40.5 µM
Dose reduction value AMF ÷ 1LP65 (Prostate PC3 cells; at GI50): 2.3 fold
Dose reduction value AMF ÷ 1LP65 (Prostate PC3 cells; at IC50): 2.8 fold
Dose reduction value AMF ÷ 1LP65 (Prostate PC3 cells; at TGI): 7.4 fold
CC50 (Prostate PC3 cells; [4]): 60 ± 1.1 µM
GI50 (Ovary SKOV3 cells; [3]): 40.9 ± 0.5 µM
IC50 (Ovary SKOV3 cells; [3]): 45.5 ± 2.5 µM
LC99 (Ovary SKOV3 cells; [3]): 98.9 ± 8.6 µM
TGI (Ovary SKOV3 cells; [3]): 50.3 ± 2.0 µM and 50.3 µM
Dose reduction value AMF ÷ 1LP65 (Ovary SKOV3 cells; at GI50): 2.0 fold
Dose reduction value AMF ÷ 1LP65 (Ovary SKOV3 cells; at IC50): 6.5 fold
CC50 (Ovary SKOV3 cells; [4]): 68.8 ± 1.8 µM
fold greater effect than amifostine (human cancer cell lines): 2.1 fold
LC99, All cell lines (human cancer cell lines; [5]): 126 ± 15.8 µM
TGI, All cell lines (human cancer cell lines; [5]): 69.3 ± 10.3 µM
LC99, range for individual cell lines (human cancer cell lines; [6]): 83.5 to 234 µM
TGI, range for individual cell lines (human cancer cell lines; [6]): 32.7 to 126 µM
fold lower concentrations in TP53-mutant compared to TP53 wild-type cell lines (human cancer cell lines; H1437 and TOV21G excluded, across dose-response metrics): ~ 1.8 fold
LC99, TP53 Wild-Type (human cancer cell lines; average of A549, H460, LNCaP): 161 ± 20.4 µM
TGI, TP53 Wild-Type (human cancer cell lines; average of A549, H460, LNCaP): 101 ± 20.1 µM
LC99, TP53 Mutant (human cancer cell lines; [7]): 95.1 ± 9.9 µM
TGI, TP53 Mutant (human cancer cell lines; [7]): 52.0 ± 7.3 µM
fold more potent than amifostine as a cytostatic agent, average (human cancer cell lines; [8]): 5.9 fold
fold more potent than amifostine as a cytostatic agent, range (human cancer cell lines; [8]): 5.0- to 6.4 fold
Fold difference in drug potency vs amifostine: GI50 (human cancer cell lines; [9]): > 5.0
Fold difference in drug potency vs amifostine: IC50 (human cancer cell lines; [9]): > 6.4
Fold difference in drug potency vs amifostine: TGI (human cancer cell lines; [9]): > 6.3
GI50 (human cancer cell lines; read-out: GI50, All cell lines, 1LP65: average across 11 cell lines, 48 h): 41.2 ± 5.4 µM
GI50 (human cancer cell lines; read-out: GI50, TP53 Mutant, average of HCC38, MDA-MB-231, H1975, DU145, PC3): 33.3 ± 3.7 µM
GI50 (human cancer cell lines; read-out: GI50, TP53 Wild-Type, average of A549, H460, LNCaP): 52.7 ± 12.4 µM
GI50 (human cancer cell lines; read-out: GI50, range for individual cell lines, 15 cell lines for 4SP65, 11 for 1LP65): 21.3 to 77.7 µM
CC50 (human cancer cell lines; read-out: LC50, All cell lines, 1LP65: average across 11 cell lines, 48 h): 94.6 ± 12.8 µM
CC50 (human cancer cell lines; read-out: LC50, TP53 Mutant, average of HCC38, MDA-MB-231, H1975, DU145, PC3): 72.9 ± 9.5 µM
CC50 (human cancer cell lines; read-out: LC50, TP53 Wild-Type, average of A549, H460, LNCaP): 133 ± 19.1 µM
CC50 (human cancer cell lines; read-out: LC50, range for individual cell lines, 15 cell lines for 4SP65, 11 for 1LP65): 51.3 to 157 µM
GI50 (human cancer cell lines; read-out: average GI50): 30.4 µM
